Data: US20250127773A1, “MODULATORS OF THE BETA-3 ADRENERGIC RECEPTOR USEFUL FOR THE TREATMENT OR PREVENTION OF HEART FAILURE” (Arena Pharmaceuticals, Inc., priority 2021, published 2025)

Each molecule was assayed against T1, Beta-3 Adrenergic Receptor (Homo sapiens, UniProt P13945) (assay: HTRF cAMP antagonist assay, IC50 determination). Settings: CHO-K1 cells stably expressing recombinant receptor; vs isoproterenol at EC90; unit nM.
T1 construct: expressed in transfected cells; host or cells: CHO-K1
T1 sequence (P13945 whole entry): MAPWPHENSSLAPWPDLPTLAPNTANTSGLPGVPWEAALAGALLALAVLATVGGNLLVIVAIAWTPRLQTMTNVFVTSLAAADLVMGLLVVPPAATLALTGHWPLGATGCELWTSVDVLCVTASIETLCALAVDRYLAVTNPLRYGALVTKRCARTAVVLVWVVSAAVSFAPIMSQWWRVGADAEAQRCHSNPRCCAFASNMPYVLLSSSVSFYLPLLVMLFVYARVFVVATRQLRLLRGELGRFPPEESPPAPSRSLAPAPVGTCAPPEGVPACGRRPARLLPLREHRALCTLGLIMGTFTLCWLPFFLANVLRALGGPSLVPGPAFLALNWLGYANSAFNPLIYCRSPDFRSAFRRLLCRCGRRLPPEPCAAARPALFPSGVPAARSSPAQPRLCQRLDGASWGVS
Type: cell-based
Protocol: HTRF CAMP assays were performed according to manufacturer's instructions (Cisbio, CAMP Dynamic 2 Assay Kit; #62AM4PEJ). CHO-K1 cells stably expressing recombinant receptor were harvested and suspended in warm PBS to make a 300,000 cells/mL stock. This cell suspension was dispensed into 384 well assay plates (PerkinElmer ProxiPlate #6008280) at 5 μL per well (1500 cells/well) along with a CAMP standard curve.
Compounds were dissolved and serially diluted (5-fold) in DMSO to generate a 10-point dose response stock. […] After a brief incubation, 2.5 μL of isoproterenol stock, prepared at a concentration 4 times its EC90 at the receptor of interest, was added to the wells. The EC90 for isoproterenol, a beta-adrenergic agonist, was determined in separate experiments using standard methods to measure agonist potencies.
Following a 1-hour incubation at room temperature, 5 μL of CAMP-D2 Reagent diluted in Lysis Buffer was added to each well followed by 5 μL of Cryptate Reagent. Plates were further incubated at room temperature for 1 hour prior to reading. Time resolved fluorescence measurements were collected on a suitable, HTRF-capable plate reader.
Counts from the plate reader were fit to the CAMP standard curve on the assay plate in order to determine cAMP concentrations in each well, and these values were used to construct dose-response curves to obtain IC50 values.
CCOCCNS(=O)(=O)c1cccc(OCC(O)CNC2COC3(CCN(S(=O)(=O)c4ccc5ccccc5c4)CC3)C2)c1 [Compound B47, NV-(2-ethoxyethyl)-3-((2S)-2-hydroxy-3-(8-(naphthalen-2-ylsulfonyl)-1-oxa-8-azaspiro[4.5]decan-3-ylamino)propoxy)benzenesulfonamide] gave an IC50 of 155 nM.
CNS(=O)(=O)c1cccc(OCC(O)CNC2COC3(CCN(S(=O)(=O)c4cccc(-c5cnn(C)c5)c4)CC3)C2)c1 [Compound B216, 3-((S)-2-hydroxy-3-((S)-8-(3-(1-methyl-1H-pyrazol-4-yl)phenylsulfonyl)-1-oxa-8-azaspiro[4.5]decan-3-ylamino)propoxy)-N-20 methylbenzenesulfonamide] showed an IC50 of 57.7 nM.
In the case of C[C@@H](NS(=O)(=O)c1cccc(OC[C@@H](O)CNC2COC3(CCN(S(=O)(=O)c4ccc5ccccc5c4)CC3)C2)c1)C1CC1 (stereo partly drawn) [Compound B93, N—((R)-1-cyclopropylethyl)-3-((2S)-2-hydroxy-3-(8-(naphthalen-2-ylsulfonyl)-1-oxa-8-25 azaspiro[4.5]decan-3-ylamino)propoxy)benzenesulfonamide], the IC50 is reported as 112 nM.
